Earlier results as cited in US10092580B2, “Controlled-release otic structure modulating and innate immune system modulating compositions and methods for the treatment of otic disorders” (OTONOMY, INC., priority 2008, dated 2018).

Columns and labels:
[1] = administered by IV
[2] = test system: V2-R; conditions: infusion into the scala tympani
[3] = minute concentrations (e.g., 0.05%)

**Q.** With `CCN(CC)CC(=O)Nc1c(C)cccc1C` [Lidocaine] as the compound, how does the “sufferers in whom the noise associated with tinnitus is reduced or eliminated” value [1] read?
**A.** Its value is 60-80%.

**Q.** For `Cc1ccccc1C(=O)Nc1ccc(C(=O)N2CCCC(N(C)C)c3ccccc32)cc1` (stereo not drawn) [OPC-31260], which “Meniere's disease symptoms” value [2] is on record?
**A.** The value was “marked reduction”.

**Q.** Which ototoxicity [3] does the source give for `[H]/N=C(\N/C(=N/[H])NCCCCCCNC(=N)NC(=N)Nc1ccc(Cl)cc1)Nc1ccc(Cl)cc1` [chlorhexidene] here?
**A.** The ototoxicity was “highly ototoxic”.
